Values quoted from earlier work, collected in patent US6582498B1, “Method of separating carbon dioxide from a gas mixture using a fluid dynamic instability” (Battelle Memorial Institute, priority 2001, dated 2003).

NCCO [MEA, monoethanolamine]
LD50 (oral for rat) (rat): 2,050 mg/kg
LD50 (intraperitoneal for mouse) (mouse): 50 mg/kg
eye irritation (for rabbit) (rabbit): 0.763 milligrams
